Where only a bound is given, the exact number is not on record here.

The values that follow come from ChEMBL document CHEMBL4052712, “Design and optimization of highly-selective, broad spectrum fungal CYP51 inhibitors” (Bioorg Med Chem Lett, 2017).

Series [1] deals with T1, Cytochrome P450 11B2, mitochondrial (Homo sapiens, UniProt P19099).
T1 sequence (P19099 whole entry): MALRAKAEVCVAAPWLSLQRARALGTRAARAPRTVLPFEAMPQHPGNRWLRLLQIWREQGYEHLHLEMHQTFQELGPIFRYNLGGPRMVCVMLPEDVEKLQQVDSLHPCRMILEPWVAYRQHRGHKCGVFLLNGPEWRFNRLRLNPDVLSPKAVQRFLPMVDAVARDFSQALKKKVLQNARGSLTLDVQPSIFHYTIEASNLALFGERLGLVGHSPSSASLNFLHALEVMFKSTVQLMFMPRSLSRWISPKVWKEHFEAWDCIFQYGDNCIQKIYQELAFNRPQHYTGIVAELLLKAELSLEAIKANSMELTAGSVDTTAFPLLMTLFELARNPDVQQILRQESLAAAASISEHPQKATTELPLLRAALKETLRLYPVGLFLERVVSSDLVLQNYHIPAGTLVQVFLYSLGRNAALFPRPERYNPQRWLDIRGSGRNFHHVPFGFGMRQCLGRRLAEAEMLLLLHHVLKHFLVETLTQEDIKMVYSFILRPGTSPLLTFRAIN
Put plainly: Inhibition of CYP11B2 in human hepatocyte microsomes using deoxycorticosteroid substrate by HPLC/MS/MS method. In kind it is ADME.

For series [2], the target named is T2, Steroid 17-alpha-hydroxylase/17,20 lyase (Homo sapiens, UniProt P05093).
T2 sequence (P05093 whole entry): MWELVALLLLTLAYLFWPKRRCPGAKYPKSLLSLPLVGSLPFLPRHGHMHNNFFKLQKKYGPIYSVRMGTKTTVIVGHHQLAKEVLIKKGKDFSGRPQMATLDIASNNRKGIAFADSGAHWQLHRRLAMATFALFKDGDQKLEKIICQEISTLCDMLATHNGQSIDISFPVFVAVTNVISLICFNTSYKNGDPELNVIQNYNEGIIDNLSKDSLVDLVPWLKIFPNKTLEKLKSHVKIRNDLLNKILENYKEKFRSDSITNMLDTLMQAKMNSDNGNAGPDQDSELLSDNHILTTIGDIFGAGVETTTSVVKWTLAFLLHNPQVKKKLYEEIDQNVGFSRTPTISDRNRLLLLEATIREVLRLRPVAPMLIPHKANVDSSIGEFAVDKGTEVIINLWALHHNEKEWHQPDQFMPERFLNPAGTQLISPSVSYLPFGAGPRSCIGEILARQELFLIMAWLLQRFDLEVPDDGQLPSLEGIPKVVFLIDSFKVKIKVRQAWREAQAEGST
Put plainly: Inhibition of CYP17 lyase in human hepatocyte microsomes using 17a-hydroxypregnenolone substrate by HPLC/MS/MS method. Format: ADME.

Series [3] concerns the target T2, Steroid 17-alpha-hydroxylase/17,20 lyase. In words: Inhibition of CYP17 hydroxylase in human hepatocyte microsomes using pregnenolone substrate by HPLC/MS/MS method. Format: ADME.
For series [4], the target named is T3, Lanosterol 14-alpha demethylase (Aspergillus, UniProt B8NUK6+G4WW85+Q9P8R0).
T3 sequence (B8NUK6 whole entry): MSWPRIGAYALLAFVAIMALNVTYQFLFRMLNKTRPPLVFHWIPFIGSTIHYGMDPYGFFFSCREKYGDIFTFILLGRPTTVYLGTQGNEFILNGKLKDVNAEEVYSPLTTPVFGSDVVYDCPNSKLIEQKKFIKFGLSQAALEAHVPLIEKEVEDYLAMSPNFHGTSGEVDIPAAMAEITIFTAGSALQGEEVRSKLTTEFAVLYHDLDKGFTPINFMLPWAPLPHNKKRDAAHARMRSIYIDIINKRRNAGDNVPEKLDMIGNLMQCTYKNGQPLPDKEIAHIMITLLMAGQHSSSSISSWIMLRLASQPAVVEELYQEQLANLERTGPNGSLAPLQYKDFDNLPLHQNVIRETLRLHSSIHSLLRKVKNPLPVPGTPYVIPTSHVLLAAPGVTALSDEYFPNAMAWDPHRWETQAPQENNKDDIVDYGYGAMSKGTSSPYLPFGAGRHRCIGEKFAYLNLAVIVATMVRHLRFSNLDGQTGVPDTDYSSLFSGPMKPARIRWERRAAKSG
T3 sequence (Q9P8R0 whole entry): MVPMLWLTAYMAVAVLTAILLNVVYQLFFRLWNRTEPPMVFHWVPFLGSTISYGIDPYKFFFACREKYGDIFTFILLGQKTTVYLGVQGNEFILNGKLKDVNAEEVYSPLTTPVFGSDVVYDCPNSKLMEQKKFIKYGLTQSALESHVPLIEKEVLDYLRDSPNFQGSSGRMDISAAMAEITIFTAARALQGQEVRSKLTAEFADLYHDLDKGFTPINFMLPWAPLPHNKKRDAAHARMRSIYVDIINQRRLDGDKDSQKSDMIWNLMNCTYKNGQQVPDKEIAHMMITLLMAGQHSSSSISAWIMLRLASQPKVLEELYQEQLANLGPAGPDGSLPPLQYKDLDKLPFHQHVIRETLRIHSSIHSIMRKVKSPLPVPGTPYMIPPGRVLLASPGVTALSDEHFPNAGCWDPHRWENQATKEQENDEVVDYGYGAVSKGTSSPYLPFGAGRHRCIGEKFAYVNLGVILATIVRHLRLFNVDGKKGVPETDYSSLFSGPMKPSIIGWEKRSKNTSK
T3 sequence (G4WW85 whole entry): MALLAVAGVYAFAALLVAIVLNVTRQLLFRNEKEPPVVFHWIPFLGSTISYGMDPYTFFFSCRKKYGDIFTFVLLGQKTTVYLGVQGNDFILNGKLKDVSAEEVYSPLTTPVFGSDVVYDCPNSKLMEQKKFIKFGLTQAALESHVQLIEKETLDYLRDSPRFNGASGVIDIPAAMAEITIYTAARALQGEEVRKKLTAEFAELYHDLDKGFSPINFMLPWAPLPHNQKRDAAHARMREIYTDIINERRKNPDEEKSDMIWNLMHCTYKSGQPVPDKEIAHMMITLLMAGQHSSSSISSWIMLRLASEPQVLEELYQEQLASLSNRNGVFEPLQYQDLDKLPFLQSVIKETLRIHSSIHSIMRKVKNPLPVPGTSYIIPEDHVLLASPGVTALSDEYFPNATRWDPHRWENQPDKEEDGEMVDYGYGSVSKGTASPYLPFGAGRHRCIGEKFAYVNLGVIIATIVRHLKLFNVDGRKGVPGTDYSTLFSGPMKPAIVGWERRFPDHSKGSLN
Put plainly: Binding affinity to Aspergillus fumigatus CYP51.

In series [5] the test system is Kidney. Put plainly: Drug level in Swiss albino mouse kidney at 5 mg/kg, po after 48 hrs assessed as relative Cmax level relative to plasma drug level by HPLC/MS/MS method. Format: ADME, organism-based. The following applies: other tissue.
Series [6] concerns Kidney. Put plainly: Drug level in Swiss albino mouse kidney at 5 mg/kg, po after 48 hrs assessed as relative AUC (48 hrs) level relative to plasma drug level by HPLC/MS/MS method. In kind it is ADME, organism-based. The settings on record: other tissue.
For a further series, the system named is Brain. Put plainly: Drug level in Swiss albino mouse brain at 5 mg/kg, po after 48 hrs assessed as relative Cmax level relative to plasma drug level by HPLC/MS/MS method. In kind it is ADME, organism-based.
The nature of series [7]: Half life in Swiss albino mouse brain at 5 mg/kg, po measured during 0.5 to 48 hrs post dose by HPLC/MS/MS method. In kind it is ADME, organism-based.
In series [8] the target is Cytochrome P450 2C19, Homo sapiens (UniProt P33261). In words: Inhibition of CYP2C19 in human hepatocyte microsomes using omeprazole substrate by HPLC/MS/MS method.
Cytochrome P450 2C19, Homo sapiens, sequence (P33261 whole entry, looked up): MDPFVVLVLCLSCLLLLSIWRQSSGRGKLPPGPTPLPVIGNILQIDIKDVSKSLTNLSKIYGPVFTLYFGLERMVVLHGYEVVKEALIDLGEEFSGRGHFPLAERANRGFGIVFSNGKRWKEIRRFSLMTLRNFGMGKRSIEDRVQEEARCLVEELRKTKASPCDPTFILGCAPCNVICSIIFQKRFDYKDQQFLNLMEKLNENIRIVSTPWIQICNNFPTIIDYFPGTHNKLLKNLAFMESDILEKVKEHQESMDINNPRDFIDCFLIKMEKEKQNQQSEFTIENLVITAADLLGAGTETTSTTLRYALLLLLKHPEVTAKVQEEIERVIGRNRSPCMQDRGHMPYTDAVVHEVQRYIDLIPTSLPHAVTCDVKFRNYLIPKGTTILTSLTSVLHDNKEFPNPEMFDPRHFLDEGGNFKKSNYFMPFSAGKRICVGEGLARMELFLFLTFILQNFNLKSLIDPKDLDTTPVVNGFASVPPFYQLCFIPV

By IC50 is commonly meant the concentration needed to halve the response being measured. Read a low IC50 as greater potency in that assay. As a reminder, the Kd is the concentration at which binding is half-saturated. Lower therefore signals a tighter complex. The half-life is the time in which the quantity being followed falls by half. Low values mean rapid decline, high ones slow decline. On to `N#Cc1ccc(COc2ccc(C#Cc3ccc(C(F)(F)C(O)(Cn4cnnn4)c4ccc(F)cc4F)nc3)cc2)cc1` (single isomer, unassigned; (+)), for which the IC50 in series [1] was more than 100 µM; in [2], 38 µM; in series [3], more than 100 µM; in [8] it was 138 µM. This molecule yielded a Kd in series [4] of 0.013 µM. Moreover, the Drug uptake in the series with Kidney [5] is given as 270%; with Kidney [6] it was 268%; in the series on Brain it was 58%. This molecule gave a half-life in [7] of 16 to 19 h.
